Consider four compounds from US4622217A, “I-4-amino-3-iodobenzylguanidine as imaging and therapeutic agent” (The Regents of the University of Michigan, priority 1984, dated 1986).

Data set [1] is described as follows: Biological tissue distribution in dogs after intravenous injection. It counts as in vivo, dog (Female Mongrel). Particulars: i.v. 100 μCi. The method, then:
(§1) Biological tissue distribution studies were performed in rats, dogs, and monkeys injected intravenously with 25 μCi, 100 μCi and 100 μCi, respectively, of I-125 4-amino-3-iodobenzylguanidine in an average volume of 0.2 ml, 2 ml, and 1 ml, respectively. Representative samples of tissues were counted in an autogamma counter with corrections made for radioactive decay, background, and counter efficiency. To normalize for differences in animal weights, tissue concentrations are expressed as percent kilogram dose per gram.

Data set [2] in a line: Biological tissue distribution in monkeys after intravenous injection. It counts as in vivo, monkey. Particulars: 3 hours, i.v. 100 μCi. Here is the method:
as §1

Data set [3] in a line: Biological tissue distribution in rats after intravenous injection. It counts as in vivo, rat (Female Sprague-Dawley). Particulars: 90 min, i.v. 25 μCi. Here is the method: as §1
The test system of data set [4] is adrenergic nerves of the heart. Description: Selectivity for the adrenergic nerves of the heart. The conditions noted are these: in vivo.
Data set [5] in a line: Radio-decomposition on storage in buffer. It counts as physicochemical. Particulars: up to 14 days, pH 4.8 sodium acetate buffer (0.005M), 1% (v/v) benzyl alcohol, 4° C., dark.
For another data set, the system named is adrenergic tissues. Briefly: Accumulation in adrenergic tissues. It counts as in vivo. Particulars: localizes in adrenergic neurons of the heart and chromaffin granules of the adrenal medulla.

The structures appear in SMILES notation.

`N=C(N)NCc1ccc(N)c([125I])c1` [I-125 4-amino-3-iodobenzylguanidine]: the tissue concentration (Mean + S.E.M.) is 0.62 ± 0.16 % kg dose/g in data set [1] (30 min, Adrenal Cortex); 8.8 ± 2.8 % kg dose/g in data set [1] (30 min, Adrenal Medulla); 0.03 % kg dose/g in data set [1] (30 min, Blood); 0.49 ± 0.05 % kg dose/g in data set [1] (30 min, Heart (Left Ventricle)); 0.36 ± 0.02 % kg dose/g in data set [1] (30 min, Liver); 0.88 ± 0.61 % kg dose/g in data set [1] (30 min, Lung). The tissue concentration (Mean + S.E.M.) in data set [1] (30 min, Muscle) is 0.05 ± 0.02 % kg dose/g; in data set [1] (30 min, Thyroid) it was 1.02 ± 0.06 % kg dose/g; in data set [1] (2 hours, Adrenal Cortex), 0.51 ± 0.15 % kg dose/g; in data set [1] (2 hours, Adrenal Medulla), 10.4 ± 0.8 % kg dose/g; in data set [1] (2 hours, Blood), 0.03 % kg dose/g; in data set [1] (2 hours, Heart (Left Ventricle)) it was 0.52 ± 0.02 % kg dose/g. Moreover, the tissue concentration (Mean + S.E.M.) in data set [1] (2 hours, Liver) was determined as 0.2 ± 0.02 % kg dose/g; in data set [1] (2 hours, Lung), 1.26 ± 0.2 % kg dose/g; in data set [1] (2 hours, Muscle) it was 0.04 ± 0.01 % kg dose/g; in data set [1] (2 hours, Thyroid), 0.85 ± 0.11 % kg dose/g; in data set [1] (72 hours, Adrenal Cortex), 0.13 ± 0.06 % kg dose/g; in data set [1] (72 hours, Adrenal Medulla), 18.3 ± 1.8 % kg dose/g. Moreover, the tissue concentration (Mean + S.E.M.) in data set [1] (72 hours, Blood) was found to be 0.02 % kg dose/g; in data set [1] (72 hours, Heart (Left Ventricle)) it was 0.06 ± 0.01 % kg dose/g; in data set [1] (72 hours, Liver), 0.05 % kg dose/g; in data set [1] (72 hours, Lung), 0.09 ± 0.01 % kg dose/g; in data set [1] (72 hours, Muscle), 0.01 % kg dose/g; in data set [1] (72 hours, Thyroid) it was 14.6 ± 2.4 % kg dose/g. Besides, the “tissue concentration (Mean + S.E.M.)” value in data set [2] (Adrenal Cortex) is on record as 0.60 ± .04 % Kg Dose/g; in data set [2] (Adrenal Modullae) it was 1.98 ± .14 % Kg Dose/g; in data set [2] (Blood), 0.03 ± .01 % Kg Dose/g; in data set [2] (Heart (Left Ventricle)), 0.85 ± .11 % Kg Dose/g; in data set [2] (Liver), 0.17 ± .04 % Kg Dose/g; in data set [2] (Lung) it was 0.99 ± .53 % Kg Dose/g. Further, the “tissue concentration (Mean + S.E.M.)” value is 0.03 ± .55 % Kg Dose/g in data set [2] (Muscle); 1.07 ± .55 % Kg Dose/g in data set [2] (Thyroid); 0.08 ± .01 % Kg Dose/g in data set [3] (Blood); 0.55 ± .06 % Kg Dose/g in data set [3] (Left Atrium); 0.46 ± .05 % Kg Dose/g in data set [3] (Left Ventricle); 0.09 ± .01 % Kg Dose/g in data set [3] (Liver). Further, the “tissue concentration (Mean + S.E.M.)” value in data set [3] (Right Atrium) is reported as 0.66 ± .05 % Kg Dose/g; in data set [3] (Right Ventricle) it was 0.70 ± .02 % Kg Dose/g; in data set [3] (Spleen), 0.35 ± .01 % Kg Dose/g.

Turning to `N=C(N)NCc1ccc(N)c(I)c1` [radioiodinated compound, radioiodinated 4-amino-3-iodobenzylguanidine], in data set [4], the “selectivity for the adrenergic nerves of the heart” value was “high degree of selectivity for the adrenergic nerves of the heart”.

As to `N=C(N)NCc1ccc(N)c([131I])c1` [I-131-labeled compound, ^131 I-4-Amino-3-Iodobenzylguanidine], the degraded at 336 h in data set [5] is below 4%.

On to `N=C(N)NCc1ccc(N)c(I)c1` [4-amino-3-iodobenzylguanidine], for which, in the data set on adrenergic tissues, the “accumulation in adrenergic tissues” value is “accumulated in adrenergic tissues in a manner similar to norepinephrine and guanethidine”.
